Assay results taken from PubChem BioAssay (NCI).
Several values for one entry are separate records, joined by “and”; a condition that tells them apart may be missing. Equal values may be shown once.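 How tested: cells in 96-well plates exposed to compound for 48 hours at five concentrations. Abbreviation: GI50, concentration required for 50% inhibition of growth. The concentration for full growth arrest is given as TGI.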

Experiments:
Experiment in all cases: inhibition of tumour cell growth, NCI panel, 48 h
HL-60(TB) leukemia = system: HL-60(TB) leukemia
OVCAR-3 ovarian = system: OVCAR-3 ovarian
SR leukemia = system: SR leukemia
UO-31 renal = system: UO-31 renal
DLD-1 colon = system: DLD-1 colon
IGROV1 ovarian = system: IGROV1 ovarian
SNB-75 CNS = system: SNB-75 CNS
DMS 273 small cell lung = system: DMS 273 small cell lung
HT29 colon = system: HT29 colon
A549 NSCLC = system: A549 NSCLC

Row | Structure (SMILES) | TGI (HL-60(TB) leukemia) | TGI (OVCAR-3 ovarian) [µM] | TGI (SR leukemia) | TGI (UO-31 renal) | TGI (DLD-1 colon) [µM] | TGI (IGROV1 ovarian) | TGI (SNB-75 CNS) [µM] | TGI (DMS 273 small cell lung) [µM] | TGI (HT29 colon) [µM] | TGI (A549 NSCLC) [µM] | GI50 (HL-60(TB) leukemia) | GI50 (OVCAR-3 ovarian) [µM] | GI50 (SR leukemia) [µM] | GI50 (UO-31 renal) [µM] | GI50 (IGROV1 ovarian) [µM] | GI50 (HT29 colon) [µM]
1 | COC(=O)[C@]12CC=C3O[C@@H]4OC5(CCCCC5)O[C@@H]4[C@H]3C1C(=O)C=CC2=O (some centres undefined) | 25.9 µM | 28.7 | > 76.8 µM | 30.8 µM | 29.9 | 34.5 µM | 34.7 | 34.3 | 34.6 | 55 |  |  |  |  |  | 
2 | Cc1cc(NC(=O)NC(=O)c2ccccc2NC(=O)CN)ccc1Oc1ncc(Br)cn1 | 0.865 µM and 0.175 µM |  | 55.8 µM and > 100 µM | 50.1 µM and > 100 µM | 4.62 | 27.7 µM and 49.5 µM | 3.28 | 38.1 |  | 35.8 | 0.111 µM and 0.0249 µM | 0.0157 | 0.0302 | 2.1 | 0.284 | 0.0653
3 | CCOC(=O)c1cnc2cc3cccccc3n2c1=O | > 100 µM | > 100 | > 100 µM | > 100 µM | > 100 | > 100 µM | > 100 | > 100 | > 100 | > 100 |  |  |  |  |  | 
4 | O=CN1CCN(C=S)CC1 | > 100 µM | > 100 | > 100 µM | > 100 µM | > 100 | > 100 µM | > 100 | > 100 | > 100 | > 100 |  |  |  |  |  | 
5 | CCOC(=O)C(=O)Nc1ccc(Cl)c(C(F)(F)F)c1 | > 100 µM | > 100 | > 100 µM | > 100 µM | > 100 | > 100 µM | > 100 | > 100 | > 100 | > 100 |  |  |  |  |  | 
6 | Cc1cc(N=C2C=C(Nc3cc(C)on3)C(=O)c3ccccc32)no1 | > 100 µM | > 100 | > 100 µM | > 100 µM | > 100 | > 78.1 µM | > 87.8 | > 100 | > 100 | > 100 |  |  |  |  |  | 
7 | CC(=O)NC1=C(NCc2ccc(Cl)cc2)C(=O)c2ccccc2C1=O | 3.22 µM | 13.1 | 29.9 µM | 11.4 µM | 13.2 | 49.6 µM | 15.2 | 14.6 | > 50 | > 50 |  |  |  |  |  | 
